Data reported in article PMC2063170, “A phase I clinical and pharmacokinetic study of the new topoisomerase inhibitor GI147211 given as a 72-h continuous infusion” (British Journal of Cancer, 1998).
“And” between values parts separate entries of the source, which are not always exact repeats. Identical values can stand only once.

Legend:
[1] = Phase I pharmacokinetics, 72-h continuous infusion, whole-blood and urine HPLC
Excerpt: (§1) Brrtish Joumal of Cancer(1998) 78(10). 1329-1336 @ 1998 Cancer Research Campaign A phase I clinical and pharmacokinetic study of the new topoisomerase inhibitor G1147211 given as a 72-h continuous infusion L Paz-Aresl*, R Kunkal 2, D DeMarial-3, J Cassidy' 4, M Alden3, P Beranek2, S Kaye', D Littlefield2, D Reilly3, S Depee2, P Wissel2, C Twelves' and P O'Dwyer3 CRC Department of Medical Oncology. University of Glasgow. Westem Infirmary Hospital. Glasgow Gll 6NT. UK; 2Glaxo Wellcome Research. Five Moore Drive. Research Triangle Park. NC 27709. USA; 'Fox Chase Cancer Center. 7701 Burholme Avenue. Philadelphia, PA 19111. USA: 4Thomas Jefferson University. Kimmel Cancer Institute. Bluemle Life Sciences Building. 233 S. 10th Street. Suite 502. Philadelphia. PA 19107. […] This study was designed to determine the maximum tolerated dose of Gl147211 as a 72-h infusion and to describe its pharmacokinetics and pharmacodynamics on this schedule. In a single-arm, rising-dose study in patients with advanced cancer, eight cohorts of three or more patients received 72-h infusions of G1147211 at doses ranging from 0.25 to 2.5 mg m-2 day-'. […] Whole-blood G1147211 lactone, total blood and total concentrations were measured during and over the 12 h following the infusion. […] Extensive phase 11 evaluation of this compound and further phase I trials evaluating more prolonged infusions are ongoing. Keywords: G1147211: GG211: camptothecin analogues: topoisomerase I inhibitor; phase I trial; pharmacokinetics: pharmacodynamics: continuous infusion GI 147211 (7-4 methyl piperazinomethilene)- 10.1 1 -ethylenedioxy - 20-(S camptothecin: Figure 1) is a totally synthetic analogue of camptothecin. a natural product isolated from Camptotheca acuminata (WAall et al. 1966: Emerson et al. 1995). […] The nuclear enzyvme DNA topoisomerase I. x hich relaxes DNA supercoils arising during, replication and gene tran- scription. has been identified as the specific targret of camptothecin (Hsianer and Liu. 1988: Wall and Wani. 1995).

[2] = Initial stability studies of infusion solution; assay type: physicochemical; conditions: 5% dextrose (average pH 5)
Excerpt: Brrtish Joumal of Cancer(1998) 78(10). 1329-1336 @ 1998 Cancer Research Campaign A phase I clinical and pharmacokinetic study of the new topoisomerase inhibitor G1147211 given as a 72-h continuous infusion L Paz-Aresl*, R Kunkal 2, D DeMarial-3, J Cassidy' 4, M Alden3, P Beranek2, S Kaye', D Littlefield2, D Reilly3, S Depee2, P Wissel2, C Twelves' and P O'Dwyer3 CRC Department of Medical Oncology. University of Glasgow. Westem Infirmary Hospital. Glasgow Gll 6NT. UK; 2Glaxo Wellcome Research. Five Moore Drive. Research Triangle Park. NC 27709. USA; 'Fox Chase Cancer Center. 7701 Burholme Avenue. Philadelphia, PA 19111. USA: 4Thomas Jefferson University. Kimmel Cancer Institute. Bluemle Life Sciences Building. 233 S. 10th Street. Suite 502. Philadelphia. PA 19107. […] This study was designed to determine the maximum tolerated dose of Gl147211 as a 72-h infusion and to describe its pharmacokinetics and pharmacodynamics on this schedule. In a single-arm, rising-dose study in patients with advanced cancer, eight cohorts of three or more patients received 72-h infusions of G1147211 at doses ranging from 0.25 to 2.5 mg m-2 day-'. […] Whole-blood G1147211 lactone, total blood and total concentrations were measured during and over the 12 h following the infusion. […] Extensive phase 11 evaluation of this compound and further phase I trials evaluating more prolonged infusions are ongoing. […]

refractory solid tumours = experiment: Anti-tumour activity in phase I patients; assay type: in vivo
Excerpt: as §1

## CC[C@@]1(O)C(=O)OCc2c1cc1n(c2=O)Cc2c-1nc1cc3c(cc1c2CN1CCN(C)CC1)OCCO3 [GI147211, 7-4 methyl piperazinomethilene)-10.1 1-ethylenedioxy - 20-(S camptothecin]
[1]; at doses of 1.2 mg m-2 day-1 and above
  Css: > 1 ng/mL
[1]; human, in vivo
  Clearance, average: 1074 ml min-1 m-2
  Mean clearance values, range over the dose range: 776-1554 ml min-1 m-2
  Mean terminal elimination half-life: 7.5 h
  Renal clearance, average: 164 ml min-
[1]; human, in vivo, 0.25 mg
  Clearance, mean: 776 ml min-1 m-2
[1]; human, in vivo, 0.5 mg
  Clearance, mean: 864 ml min-1 m-2
[1]; human, in vivo, 1 mg
  Clearance, mean: 826 ml min-1 m-2
  Half-life, mean: 7.9 h
[1]; human, in vivo, 1.2 mg
  Clearance, mean: 1279 ml min-1 m-2
  Half-life, mean: 6.1 h
[1]; human, in vivo, 1.5 mg
  Clearance, mean: 1046 ml min-1 m-2
  Half-life, mean: 7.4 h
[1]; human, in vivo, 2 mg
  Clearance, mean: 1290 ml min-1 m-2
  Half-life, mean: 7.2 h
[1]; human, in vivo, 2.5 mg
  Clearance, mean: 1554 ml min-1 m-2
  Half-life, mean: 8.5 h
[1]; in vivo
  Total drug recovered unaltered in urine: ~11%
  Variation in Css with dose level: two- to threefold
[1]; lactone, 1.75 mg m-2 day-1, n=3
  Clearance, mean: 1138 ml min-1 m-2
[1]; lactone, whole blood, 0.25 mg m-2 day-1, n=6
  Css, mean: 0.25 ng/mL
[1]; lactone, whole blood, 1.0 mg m-2 day-1, n=5
  Css, mean: 0.86 ng/mL
[1]; lactone, whole blood, 1.2 mg m-2 day-1, n=3
  Css, mean: 0.74 ng/mL
[1]; lactone, whole blood, 1.5 mg m-2 day-1, n=10
  Css, mean: 1.09 ng/mL
[1]; lactone, whole blood, 1.75 mg m-2 day-1, n=3
  Css, mean: 1.10 ng/mL
[1]; lactone, whole blood, 2.0 mg m-2 day-1, n=11
  Css, mean: 1.09 ng/mL
[1]; lactone, whole blood, 2.5 mg m-2 day-1, n=2
  Css, mean: 1.21 ng/mL
[1]; total drug in urine, 15 subjects
  Mean fraction of drug excreted unchanged in the urine (fe): 0.114
[1]; whole blood
  Total blood concentrations (lactone plus carboxylate) relative to lactone concentrations: approximately four
[2]
  Stability as a concentrate or as a more dilute solution: stable
Refractory solid tumours; 44 patients
  Number of minor responses: two
  Number of partial responses: Three
Refractory solid tumours; individual patients (breast, ovarian, colorectal cancer)
  Duration of partial response: 8 weeks and 30 weeks and ≥ 34 weeks
Refractory solid tumours; patient with colorectal cancer
  Decrease in hepatic lesions: 44%
Refractory solid tumours; patient with hepatoma
  Decrease in hepatic lesions: 36%
